From US4416884A, “Piperazinylbenzoheterocyclic compounds” (Otsuka Pharmaceutical Co., Ltd., priority 1978, dated 1983) come the findings set out here.

What all share (assay): antimicrobial activity, serial dilution method on agar plate
Assay type in all cases: cell-based

Assay [1] deals with Escherichia Coli NIHJ JC-2 (IFO 12734). The conditions noted are these: for MIC: Escherichia coli, read-out: Minimum Inhibitory Concentration. The method, then: (§1) The antimicrobial activity of the following test compounds on various test organisms listed below was determined by the serial dilution method on agar plate (Heart Infusion agar produced by Difco Co.) (see CHEMOTHERAPY 22, pp. 1126-1128 (1974)), and the minimum inhibitory concentrations (mcg/ml) obtained are shown in Table 1 below.
(§2) A sample of each test organism was prepared so that the population of the organism was 1×10^8 cells/ml (O.D. 660 mμ=0.07 to 0.16) and 1×10^6 cells/ml (which was obtained by diluting the above 1×10^8 cells/ml preparation).

Another assay deals with Klebsiella pneumoniae. On the procedure: as §1, §2
The next assay concerns Proteus rettgeri NIH 96. The note with it: Providencia rettgeri. The method, then:
as §1, §2

The test system of assay [2] is Pseudomonas aeruginosa ATCC 10145. On the procedure: as §1, §2
Assay [3] relates to Pseudomonas aeruginosa E-2. On the procedure:
as §1, §2

For assay [4], the system named is Pseudomonas aeruginosa NCTC 10490. On the procedure:
as §1, §2

In assay [5] the test system is Salmonella typhi 0-901 (NCTC 8393). The note with it: Salmonella enterica. The method, then: as §1, §2
In assay [6] the test system is Serattia marcescens IFO 12648. On the procedure:
as §1, §2

In another assay the test system is Shigella Sonnei EW 33. The conditions noted are these: read-out: Minimum Inhibitory Concentration. The method, then: as §1, §2
Assay [7] relates to Staphylococcus aureus FDA 209 P. The method, then: as §1, §2
For assay [8], the system named is Streptococcus pyogenes IID S-23. On the procedure: as §1, §2
[9] abbreviates: inoculum 1 × 10^8 cells/ml, read-out: Minimum Inhibitory Concentration.
[10] abbreviates: NIH96, inoculum 1 × 10^8 cells/ml, read-out: Minimum Inhibitory Concentration.
Where [11] appears, read: ATCC10145, inoculum 1 × 10^8 cells/ml, read-out: Minimum Inhibitory Concentration.
Where [12] appears, read: E2, inoculum 1 × 10^8 cells/ml, read-out: Minimum Inhibitory Concentration.
[13] abbreviates: NCTC10490, inoculum 1 × 10^8 cells/ml, read-out: Minimum Inhibitory Concentration.
Where [14] appears, read: read-out: Minimum Inhibitory Concentration, inoculum 1 × 10^8 cells/ml.
Setting [15] is: FDA209, inoculum 1 × 10^8 cells/ml, read-out: Minimum Inhibitory Concentration.
Setting [16] is: NIH96, read-out: Minimum Inhibitory Concentration, inoculum 1 × 10^8 cells/ml.
Setting [17] is: ATCC10145, read-out: Minimum Inhibitory Concentration, inoculum 1 × 10^8 cells/ml.
[18] abbreviates: E2, read-out: Minimum Inhibitory Concentration, inoculum 1 × 10^8 cells/ml.
The mark [19] stands for this setting: NCTC10490, read-out: Minimum Inhibitory Concentration, inoculum 1 × 10^8 cells/ml.
Where [20] appears, read: FDA209, read-out: Minimum Inhibitory Concentration, inoculum 1 × 10^8 cells/ml.
Where [21] appears, read: read-out: Minimum Inhibitory Concentration, inoculum 1 × 10^6 cells/ml.

SMILES strings stand for the structures. Converted amounts (≈) assume the structure as drawn. Counter-ions that a name gives are not always drawn. Like-named read-outs stand apart in the source and are kept apart here.

As for `CN1CCN(c2ccc3c(=O)c(C(=O)O)cn4c3c2CCC4)CC1` [Compound L, 8-(4-Methyl-1-piperazinyl)-6,7-dihydro-1-oxo-1H,5H--benzo[ij]quinolizine-2-carboxylic acid], the MIC in [1] (inoculum 1 × 10^8 cells/ml) was determined as 1.6 µg/mL (≈ 4.89 µM); in the assay on Klebsiella pneumoniae (setting [9]) it was 6.3 µg/mL (≈ 19.2 µM); in the assay on Proteus rettgeri NIH 96 (setting [10]) it was 3.1 µg/mL (≈ 9.47 µM); in assay [2] (setting [11]), 50 µg/mL (≈ 153 µM); in [3] (setting [12]), 50 µg/mL (≈ 153 µM); in [4] (setting [13]), 50 µg/mL (≈ 153 µM). The MIC in [5] (setting [14]) amounted to 3.1 µg/mL (≈ 9.47 µM); in assay [6] (setting [9]), 6.3 µg/mL (≈ 19.2 µM); in the assay with Shigella Sonnei EW 33 (inoculum 1 × 10^8 cells/ml), 3.1 µg/mL (≈ 9.47 µM); in [7] (setting [15]), 6.3 µg/mL (≈ 19.2 µM).

As for `O=CN1CCN(c2ccc3c(=O)c(C(=O)O)cn4c3c2CCC4)CC1` [Compound M, 8-(4-Formyl-1-piperazinyl)-6,7-dihydro-1-oxo-1H,5H--benzo[ij]quinolizine-2-carboxylic acid], the MIC in [1] (inoculum 1 × 10^8 cells/ml) is 1.6 µg/mL (≈ 4.69 µM); with Klebsiella pneumoniae (setting [9]), 3.1 µg/mL (≈ 9.08 µM); with Proteus rettgeri NIH 96 (setting [10]), 1.6 µg/mL (≈ 4.69 µM); in [2] (setting [11]), 25 µg/mL (≈ 73.2 µM); in [3] (setting [12]) it was 25 µg/mL (≈ 73.2 µM); in assay [4] (setting [13]), 12.5 µg/mL (≈ 36.6 µM). In addition, the MIC in assay [5] (setting [14]) amounted to 0.8 µg/mL (≈ 2.34 µM); in [6] (setting [9]), 3.1 µg/mL (≈ 9.08 µM); in the assay on Shigella Sonnei EW 33 (inoculum 1 × 10^8 cells/ml) it was 1.6 µg/mL (≈ 4.69 µM); in assay [7] (setting [15]), 3.1 µg/mL (≈ 9.08 µM).

With `O=C(O)c1cn2c3c(c(N4CCN(C(=O)c5ccccc5)CC4)ccc3c1=O)CCC2` [Compound N, 8-(4-Benzoyl-1-piperazinyl)-6,7-dihydro-1-oxo-1H,5H--benzo[ij]quinolizine-2-carboxylic acid], the MIC came out at 6.3 µg/mL (≈ 15.1 µM) in [1] (inoculum 1 × 10^8 cells/ml); 6.3 µg/mL (≈ 15.1 µM) in the assay with Klebsiella pneumoniae (setting [9]); 6.3 µg/mL (≈ 15.1 µM) in the assay with Proteus rettgeri NIH 96 (setting [10]); 50 µg/mL (≈ 120 µM) in assay [2] (setting [11]); 100 µg/mL (≈ 240 µM) in [3] (setting [12]); 25 µg/mL (≈ 59.9 µM) in [4] (setting [13]). In addition, the MIC in assay [5] (setting [14]) stood at 1.6 µg/mL (≈ 3.83 µM); in [6] (setting [9]), 12.5 µg/mL (≈ 29.9 µM); in the assay on Shigella Sonnei EW 33 (inoculum 1 × 10^8 cells/ml), 3.1 µg/mL (≈ 7.43 µM); in assay [7] (setting [15]), 3.1 µg/mL (≈ 7.43 µM).

As to `CS(=O)(=O)N1CCN(c2ccc3c(=O)c(C(=O)O)cn4c3c2CCC4)CC1` [Compound O, 8-(4-Methanesulfonyl-1-piperazinyl)-6,7-dihydro-1-oxo-1H,5H--benzo[ij]quinolizine-2-carboxylic acid], the MIC was 6.3 µg/mL (≈ 16.1 µM) in assay [1] (inoculum 1 × 10^8 cells/ml); 6.3 µg/mL (≈ 16.1 µM) with Klebsiella pneumoniae (setting [9]); 6.3 µg/mL (≈ 16.1 µM) in the assay with Proteus rettgeri NIH 96 (setting [10]); 100 µg/mL (≈ 255 µM) in assay [2] (setting [11]); 100 µg/mL (≈ 255 µM) in assay [3] (setting [12]); 25 µg/mL (≈ 63.9 µM) in assay [4] (setting [13]). Also, the MIC turned out to be 1.6 µg/mL (≈ 4.09 µM) in [5] (setting [14]), 12.5 µg/mL (≈ 31.9 µM) in [6] (setting [9]), 6.3 µg/mL (≈ 16.1 µM) in the assay with Shigella Sonnei EW 33 (inoculum 1 × 10^8 cells/ml) and 3.1 µg/mL (≈ 7.92 µM) in assay [7] (setting [15]).

As for `O=C(O)c1cn2c3c(c(N4CCNCC4)c(Cl)cc3c1=O)CCC2` [Compound P, 9-Chloro-8-(1-piperazinyl)-6,7-dihydro-1-oxo-1H,5H--benzo[ij]quinolizine-2-carboxylic acid hydrochloride], the MIC worked out at 1.6 µg/mL in assay [1]; 0.8 µg/mL in the assay with Klebsiella pneumoniae (setting [14]); 0.4 µg/mL with Proteus rettgeri NIH 96 (setting [16]); 6.3 µg/mL in assay [2] (setting [17]); 6.3 µg/mL in assay [3] (setting [18]); 6.3 µg/mL in [4] (setting [19]). The MIC in assay [5] (setting [9]) stood at 0.8 µg/mL; in [6] (setting [14]) it was 1.6 µg/mL; in the assay with Shigella Sonnei EW 33 (inoculum 1 × 10^8 cells/ml), 1.6 µg/mL; in assay [7] (setting [20]) it was 6.3 µg/mL.

As to `O=C(O)c1cn2c3c(c(N4CCNCC4)ccc3c1=O)CC2` [Compound Q, 9-(1-Piperazinyl)-6-oxo-1,2-dihydro-6H--pyrrolo[3,2,1-ij]quinoline-5-carboxylic acid hydrochloride], the MIC in assay [1] is 25 µg/mL; in the assay on Klebsiella pneumoniae (setting [14]) it was 12.5 µg/mL; with Proteus rettgeri NIH 96 (setting [16]), 25 µg/mL; in assay [2] (setting [17]), 50 µg/mL; in assay [3] (setting [18]), 50 µg/mL; in assay [4] (setting [19]) it was 25 µg/mL. Moreover, the MIC came to 6.3 µg/mL in assay [5] (setting [9]), 6.3 µg/mL in assay [6] (setting [14]), 3.1 µg/mL with Shigella Sonnei EW 33 (inoculum 1 × 10^8 cells/ml) and 100 µg/mL in assay [7] (setting [20]).

Consider `O=C(O)c1cn2c3c(c(N4CCN(Cc5ccccc5)CC4)ccc3c1=O)CCC2` [Compound R, 8-(4-Benzyl-1-piperazinyl)-6,7-dihydro-1-oxo-1H,5H--benzo[ij]quinolizine-2-carboxylic acid], for which the MIC in [1] (inoculum 1 × 10^8 cells/ml) is 1.6 µg/mL (≈ 3.97 µM); with Klebsiella pneumoniae (setting [9]) it was 3.1 µg/mL (≈ 7.68 µM); in the assay on Proteus rettgeri NIH 96 (setting [10]) it was 1.6 µg/mL (≈ 3.97 µM); in [2] (setting [11]) it was 25 µg/mL (≈ 62 µM); in [3] (setting [12]), 25 µg/mL (≈ 62 µM); in [4] (setting [13]), 12.5 µg/mL (≈ 31 µM). Also, the MIC in [5] (setting [14]) amounted to 1.6 µg/mL (≈ 3.97 µM); in [6] (setting [9]), 3.1 µg/mL (≈ 7.68 µM); in the assay on Shigella Sonnei EW 33 (inoculum 1 × 10^8 cells/ml), 1.6 µg/mL (≈ 3.97 µM); in [7] (setting [15]), 12.5 µg/mL (≈ 31 µM).

As to `Cc1ccc(S(=O)(=O)N2CCN(c3ccc4c(=O)c(C(=O)O)cn5c4c3CCC5)CC2)cc1` [Compound S, 8-(4-p-Toluenesulfonyl-1-piperazinyl)-6,7-dihydro-1-oxo-1H,5H--benzo[ij]quinolizine-2-carboxylic acid], the MIC in assay [1] (inoculum 1 × 10^8 cells/ml) was found to be 1.6 µg/mL (≈ 3.42 µM); in the assay on Klebsiella pneumoniae (setting [9]), 3.1 µg/mL (≈ 6.63 µM); in the assay on Proteus rettgeri NIH 96 (setting [10]), 3.1 µg/mL (≈ 6.63 µM); in assay [2] (setting [11]), 25 µg/mL (≈ 53.5 µM); in assay [3] (setting [12]), 50 µg/mL (≈ 107 µM); in assay [4] (setting [13]), 12.5 µg/mL (≈ 26.7 µM). In addition, the MIC stood at 1.6 µg/mL (≈ 3.42 µM) in assay [5] (setting [14]), 6.3 µg/mL (≈ 13.5 µM) in assay [6] (setting [9]), 3.1 µg/mL (≈ 6.63 µM) with Shigella Sonnei EW 33 (inoculum 1 × 10^8 cells/ml) and 6.3 µg/mL (≈ 13.5 µM) in assay [7] (setting [15]).

Take `CC1CCc2c(N3CCNCC3)c(Cl)cc3c(=O)c(C(=O)O)cn1c23` (stereo not drawn) [Compound T, 8-(1-Piperazinyl)-9-chloro-5-methyl-6,7-dihydro-1-oxo-1H,5H--benzo[ij]quinolizine-2-carboxylic acid hydrochloride hydrate]: the MIC came out at 0.4 µg/mL in [1]; 0.4 µg/mL in the assay on Klebsiella pneumoniae (setting [21]); 0.4 µg/mL with Klebsiella pneumoniae (setting [14]); 0.2 µg/mL with Proteus rettgeri NIH 96 (NIH96, read-out: Minimum Inhibitory Concentration, inoculum 1 × 10^6 cells/ml); 0.2 µg/mL in the assay with Proteus rettgeri NIH 96 (setting [16]); 1.6 µg/mL in assay [2] (ATCC10145, read-out: Minimum Inhibitory Concentration, inoculum 1 × 10^6 cells/ml). For the same compound, the MIC in assay [2] (setting [17]) was 3.1 µg/mL; in assay [3] (E2, read-out: Minimum Inhibitory Concentration, inoculum 1 × 10^6 cells/ml), 3.1 µg/mL; in assay [3] (setting [18]), 3.1 µg/mL; in assay [4] (NCTC10490, read-out: Minimum Inhibitory Concentration, inoculum 1 × 10^6 cells/ml), 1.6 µg/mL; in assay [4] (setting [19]) it was 1.6 µg/mL; in assay [5] (inoculum 1 × 10^6 cells/ml, read-out: Minimum Inhibitory Concentration), 0.1 µg/mL. The MIC in [5] (setting [9]) worked out at 0.2 µg/mL; in assay [6] (setting [21]), 1.6 µg/mL; in assay [6] (setting [14]), 1.6 µg/mL; with Shigella Sonnei EW 33 (inoculum 1 × 10^6 cells/ml), 0.2 µg/mL; in the assay with Shigella Sonnei EW 33 (inoculum 1 × 10^8 cells/ml), 0.2 µg/mL; in [7] (FDA209, read-out: Minimum Inhibitory Concentration, inoculum 1 × 10^6 cells/ml) it was 1.6 µg/mL. The MIC in assay [7] (setting [20]) was found to be 1.6 µg/mL; in assay [8] (IIDS23, read-out: Minimum Inhibitory Concentration, inoculum 1 × 10^6 cells/ml), 3.1 µg/mL; in [8] (IIDS23, read-out: Minimum Inhibitory Concentration, inoculum 1 × 10^8 cells/ml), 6.3 µg/mL. Further, in assay [1] (inoculum 1 × 10^6 cells/ml), the “Minimum Inhibitory Concentration” value is 0.4 µg/mL.
